In article PMC7038073, “Substituted Piperazines as Novel Potential Radioprotective Agents” (Molecules, 2020):
Where a name gives a salt, the structure may show the parent alone.

How the values were obtained:
[1] = WST-1 cytotoxicity test, HeLa; type: cell-based; settings: human, HeLa cells, 48 h, WST-1, mean ± SD of three experiments, read-out: relative viability (%) compared to untreated control
Experimental: (§1) In this study, the cytotoxic effects of nine new compounds (2, 3, 4, 5, 6, 7, 8, 9, 10) were tested on 10 human cell lines (nine cancer and one non-cancer cell line). The cell lines were treated with each compound at concentrations of 10 µM and 100 µM for 48 h. The proliferation capacity of the treated cells was determined by WST-1 test and compared against the proliferation rate of the untreated control cells (100%).
(§2) The cell lines Jurkat, MOLT-4, A2780, A549, HT-29, PANC-1, HeLa, MCF-7, SAOS-2, and MRC-5 (all purchased from Sigma Aldrich, Czech Republic) were included in this study. All cell lines were maintained according to the provider’s guidelines, and plated and treated in 96-well plates (500 to 30 × 10^3 cells per well). The tested compounds 2, 3, 4, 5, 6, 7, 8, 9, and 10 were dissolved in 0.1% DMSO and kept in 10 mM stock solutions. Before use, the stock solution was diluted in culture media at ratios of 1:100 and 1:1000. The studied cell lines were treated with the compounds 2, 3, 4, 5, 6, 7, 8, 9, and 10 at concentrations of 10 and 100 µM for 48 h. Control cells were tested in culture media with and without DMSO (0.1%). The cells were also treated with 1 µM doxorubicin as a cytotoxicity control.
(§3) The WST-1 (2-(4-iodophenyl)-3-(4-nitrophenyl)-5-(2,4-disulfophenyl)-2H-tetrazolium, monosodium salt) test (Roche, Mannheim, Germany) was used according to the manufacturer’s protocol to determine cell viability in all 10 cell lines 48 h after treatment with the tested compounds. The cells were analyzed in a Tecan Infinite M200 spectrometer (Tecan Group, Männedorf, Switzerland) at 440 nm.

[2] = WST-1 cytotoxicity test, A2780; type: cell-based; settings: human, A2780 cells, 48 h, WST-1, mean ± SD of three experiments, read-out: relative viability (%) compared to untreated control; for viability at 48 h, 10 µM: A2780, 10 µM; for viability at 48 h, 100 µM: A2780, 100 µM
Experimental: as §1, §2, §3

[3] = WST-1 cytotoxicity test, MOLT-4; type: cell-based; settings: human, MOLT-4 cells, 48 h, WST-1, mean ± SD of three experiments, read-out: relative viability (%) compared to untreated control; for viability at 48 h, 10 µM: MOLT-4, 10 µM; for viability at 48 h, 100 µM: MOLT-4, 100 µM
Experimental: as §1, §2, §3

[4] = WST-1 cytotoxicity test, Jurkat; type: cell-based; settings: human, Jurkat cells, 48 h, WST-1, mean ± SD of three experiments, read-out: relative viability (%) compared to untreated control
Experimental: as §1, §2, §3

[5] = tested on: 10 human cell lines (nine cancer and one non-cancer cell line); assay: WST-1 cytotoxicity test, statements over all cell lines; type: cell-based; settings: 100 µM, 48 h, studied cell lines
Experimental: as §1, §2, §3

[6] = WST-1 cytotoxicity test, SAOS-2; type: cell-based; settings: human, SAOS-2 cells, 48 h, WST-1, mean ± SD of three experiments, read-out: relative viability (%) compared to untreated control; for viability at 48 h, 10 µM: SAOS-2, 10 µM; for viability at 48 h, 100 µM: SAOS-2, 100 µM
Experimental: as §1, §2, §3

[7] = WST-1 cytotoxicity test, MRC-5; type: cell-based; settings: human, MRC-5 cells, 48 h, WST-1, mean ± SD of three experiments, read-out: relative viability (%) compared to untreated control; for viability at 48 h, 10 µM: MRC-5, 10 µM; for viability at 48 h, 100 µM: MRC-5, 100 µM
Experimental: as §1, §2, §3

[8] = WST-1 cytotoxicity test, A549; type: cell-based; settings: human, A549 cells, 48 h, WST-1, mean ± SD of three experiments, read-out: relative viability (%) compared to untreated control; for viability at 48 h, 10 µM: A549, 10 µM; for viability at 48 h, 100 µM: A549, 100 µM
Experimental: as §1, §2, §3

A549 cells = assay: MTT assay, IC50 and MTC; settings: for IC50 fold higher than that for compound 2 / MTC (maximum tolerated concentration): A549 cells, MTT; for MTC (maximum tolerated concentration): 24 h of treatment; for IC50: Homo sapiens, A549, 24 h, read-out: IC50 ± SEM
Experimental: In further experiments, MTT (3-(4,5-di-methylthiazol-2-yl)-2,5-diphenyltetrazolium bromide) assay was employed to evaluate the toxicological indexes of the newly synthesized compounds, including IC50 (half-maximal inhibitory concentration) and MTC (maximum tolerated concentration).
IC50 and MTC were determined through MTT assays. The MTT assay was performed according to [35]. In brief, the A549 cell line was plated in 96-well plates (100 µL, 9 × 10^3 cells per well) and incubated overnight. The tested compounds were prepared in phosphate buffer saline (PBS; Sigma–Aldrich) and serially diluted in DMEM (Dulbecco’s Modified Eagle Medium). An untreated control was included as a viability standard in each plate. After 24 h of treatment, the viability of A549 cells was measured at 570 nm. All experiments were performed in triplicate. The GraphPad Prism statistics software v5.04 (GraphPad Software Inc., San Diego, CA, USA) was used to calculate the IC50 values for parameter nonlinear regression. Values are expressed as mean ± SEM.

MOLT-4 cells = assay: Radioprotection in vitro, Annexin V/PI flow cytometry after irradiation; type: cell-based, human; settings: 60-min pre-treatment, 1 Gy; for viability at 100 µM: Homo sapiens, MOLT-4, light or radiation study, 24 h following irradiation, irradiated untreated 40%, non-irradiated control 92%, read-out: percentage of viable MOLT-4 cells (Annexin V and PI negative) after irradiation; for radioprotective effect in vitro (in words): 100 μM, MOLT-4
Source text: Phosphatidylserine, a major component of the inner leaflet of the cytoplasmic membrane bilayers, is frequently used as an indicator of cell death. The externalization of this phospholipid can be detected through Annexin V, which binds to phosphatidylserine in the presence of calcium. Cell viability was quantified by Annexin V-Alexa Fluor® 488/propidium iodide (PI) staining and flow cytometry analysis to determine whether the tested compounds could prevent radiation-induced cell death in MOLT-4 cells. The percentage of viable cells was 92% for non-irradiated control (0.1% DMSO vehicle) and 40% for untreated irradiated cells (1 Gy) (Figure 2A).
Fresh 50 mM stock solutions of the compounds were prepared in DMSO (Sigma-Aldrich, St. Louis, MO, USA) before use in the study. For the radioprotection experiments, MOLT-4 cells were treated with 100 μM solutions of the novel compounds and irradiated after 60 min with a ^60Co γ-ray source (Chisotron Chirana, Prague, Czech Republic). The non-irradiated and irradiated control cells were treated with DMSO vehicle only (0.1%) and handled in parallel with the experimental cells. Non-irradiated control cells were handled in the same manner. Cell viability was determined by flow cytometry using an Alexa Fluor® 488 Annexin V/Dead Cell Apoptosis kit (Life Technologies, Grand Island, NY, USA) according to the manufacturer’s instructions. The Alexa Fluor® 488 Annexin V/Dead Cell Apoptosis kit employs the property of Alexa Fluor® 488 conjugated to Annexin V to bind to phosphatidylserine in the presence of Ca^2+, and the property of propidium iodide (PI) to enter cells with damaged cell membranes and bind to DNA. Measurement was performed using a CyAn (Beckman Coulter, Miami, FL, USA) flow cytometer. Listmode data was analyzed with the Kaluza Analysis v1.3 software (Beckman Coulter, Miami, FL, USA).

Compound	viability at 48 h, 10 µM [1]	viability at 48 h, 100 µM [1]	viability at 48 h, 10 µM [2]	viability at 48 h, 100 µM [2]	viability at 48 h, 10 µM [3]	viability at 48 h, 100 µM [3]	viability at 48 h, 10 µM [4]	viability at 48 h, 100 µM [4]	cytotoxic effect (in words) [5]	viability at 48 h, 10 µM [6]	viability at 48 h, 100 µM [6]	viability at 48 h, 10 µM [7]	viability at 48 h, 100 µM [7]	viability at 48 h, 10 µM [8]	viability at 48 h, 100 µM [8]	IC50 fold higher than that for compound 2 (A549 cells)	MTC (maximum tolerated concentration) (A549 cells)	IC50 (A549 cells)	viability at 100 µM (MOLT-4 cells)	radioprotective effect in vitro (in words) (MOLT-4 cells)
Cc1cc(OCC(O)CN2CCN(CCO)CC2)ccc1Cl.Cl.Cl (centres unmarked) [Compound 4, 1-(4-chloro-3-methylphenoxy)-3-(4-(2-hydroxyethyl)piperazin-1-yl)propan-2-ol dihydrochloride]	106 ± 2%	137 ± 5%	98 ± 2%	89 ± 1%	88 ± 6%	92 ± 6%	105 ± 5%	89 ± 1%	no significant cytotoxic effects	99 ± 6%	88 ± 4%	97 ± 8%	93 ± 5%	100 ± 4%	99%	16.0 fold	0.05 mM	640 ± 30 µM	61%	–
Cl.Cl.Cl.OCCN1CCN(CCCNc2ccccc2)CC1 [Compound 5, 2-(4-(3-(phenylamino)propyl)piperazin-1-yl)ethanol trihydrochloride]	100 ± 4%	116 ± 10%	93 ± 5%	105 ± 8%	93 ± 9%	104 ± 7%	98 ± 4%	98 ± 3%	no significant cytotoxic effects	96 ± 4%	111 ± 6%	98 ± 7%	102 ± 8%	86 ± 7%	104 ± 8%	33.8 fold	0.05 mM	1350 ± 120 µM	59%	did not show statistically significant radioprotective effect
Cl.Cl.Cl.OCCN1CCN(CCCNc2cccc3ccccc23)CC1 [Compound 6, 2-(4-(3-(naphthalen-1-ylamino)propyl)piperazin-1-yl)ethanol trihydrochloride]	108 ± 6%	104 ± 7%	74 ± 3%	95 ± 4%	90 ± 7%	112 ± 4%	101 ± 1%	93 ± 2%	no significant cytotoxic effects	94 ± 6%	111 ± 4%	91 ± 4%	94 ± 2%	103 ± 7%	93 ± 3%	11.3 fold	0.02 mM	450 ± 10 µM	69%	–
COc1ccc(NCCCN2CCN(CCO)CC2)cc1.Cl.Cl.Cl [Compound 7, 2-(4-(3-((4-methoxyphenyl)amino)propyl)piperazin-1-yl)ethanol trihydrochloride]	96 ± 8%	132 ± 3%	94 ± 3%	91 ± 2%	93 ± 3%	99 ± 3%	100 ± 5%	96%	no significant cytotoxic effects	102 ± 7%	109 ± 2%	100 ± 3%	104 ± 3%	95 ± 5%	115%	63.8 fold	0.39 mM	2550 ± 210 µM	64%	–
OCCN1CCN(CC(O)CN2CCN(CCO)CC2)CC1 [Compound 8, 1.3-bis [4-(2-hydroxyethyl)piperazin-1-yl)propan-2-ol tetrahydrochloride]	103 ± 4%	100 ± 18%	104 ± 4%	76 ± 10%	106 ± 8%	81 ± 6%	103 ± 5%	96 ± 13%	no significant cytotoxic effects	102 ± 6%	87 ± 7%	95 ± 7%	119 ± 16%	97 ± 5%	111 ± 11%	625 fold	6.25 mM	> 25000 µM	57%	–
Cl.Cl.OC(CNc1ccccc1)CNc1ccccc1 [Compound 9, 1,3-bis(phenylamino)propan-2-ol dihydrochloride]	99 ± 9%	90 ± 14%	90 ± 3%	64 ± 5%	103 ± 8%	71 ± 4%	104 ± 5%	79 ± 11%	no significant cytotoxic effects	106 ± 2%	90 ± 4%	102 ± 8%	120 ± 16%	107 ± 11%	98 ± 13%	6.0 fold	0.09 mM	240 ± 10 µM	34%	no significant radioprotective effect
